Legend:
[1] = tested on: TNF-α; assay: LPS+PHA-induced TNF-α secretion in whole blood from healthy subjects (ELISA); type: cell-based, human
Method: (§1) FIG. 7 Effect of ATP on LPS+PHA-induced TNF-α secretion in whole blood from healthy subjects. The whole blood was exposed to 10 μg/ml LPS and 1 μg/ml PHA with indicated concentrations of ATP for 24 h. The TNF-α released into the supernatants was analyzed using the ELISA method. Results are expressed in percentage, 100% being the TNF-α release under stimulation by LPS+PHA without ATP. […] Data are expressed as the mean values; error bars represent SEM. *, different from control (stimulation by LPS+PHA without ATP) (P<0.05).
FIG. 13 Effect of different purinergic compounds on LPS+PHA-induced TNF-α secretion in whole blood. The whole blood was exposed to 10 μg/ml LPS and 1 μg/ml PHA with the indicated purinergic compounds at the concentration of 300 μM for 24 h. The TNF-α released into the supernatant was analyzed using the ELISA method. Results are expressed in percentage, 100% being the TNF-α release under stimulation by LPS+PHA without addition of a purinergic compound (control). […] The TNF-α release induced by LPS+PHA from whole blood was not inhibited by UTP, UDP or CTP. Data are expressed as the mean values; error bars represent SEM.
(§2) Blood was collected from 8 healthy subjects in heparin containing vacutainer tubes. All incubations were performed in duplicate. ATP was dissolved in RPMI 1640 culture medium, at a final concentration of 1-300 μM, and blood pre-incubated with ATP at 5% CO2 at 37 DC for 30 min. After stimulation with LPS en PHA (10 and 1 μg/ml final concentration, respectively), the plates were incubated in 5% CO2 at 37° C. for 24 h. Cell-free supernatant fluids were then collected by centrifugation (6000 rpm, 10 min at 4° C.) and stored at −20° C. until tested for presence of cytokines. All cytokines were quantified by means of PeliKine Compact human ELISA kits (CLB/Sanquin, The Netherlands), based on appropriate and validated sets of monoclonal antibodies.
Whole blood was collected and stimulated with LPS+PHA as described for Experiment 2. ATP, dissolved in RPMI 1640 culture medium, was added to the blood at a final concentration of 1-1000 μM. The agonists were added in the same way as ATP, however their stock solutions are prepared in PBS and further diluted in medium. All incubations are performed in duplicate.

[2] = tested on: IL-10; assay: LPS+PHA-induced IL-10 secretion in whole blood from healthy subjects (ELISA); type: cell-based, human; conditions: indicated ATP concentrations, 24 h
Method: as §1, with “8” for “7”, “IL-10” for “TNF-α”
as §2
Whole blood was collected and stimulated with LPS+PHA as described for Experiment 2. […]

[3] = tested on: TNF-α; assay: LPS+PHA-induced TNF-α secretion in whole blood under oxidative stress (H2O2); type: cell-based, human
Method: FIG. 10 Effect of ATP on LPS+PHA-induced TNF-α secretion in whole blood from healthy subjects under conditions of oxidative stress. Two concentrations of H2O2 (1 and 10 mM) were added to whole blood, followed by the incubation with the concentrations of ATP. Then, blood was exposed to 10 μg/ml LPS and 1 μg/ml PHA, and incubated for 24 h. The TNF-α released into the supernatants was analyzed using the ELISA method. […] Data are expressed as the mean values; error bars represent SEM.
(§3) Whole blood of healthy subjects was collected as described for Experiment 2, and pre-incubated with 1 or 10 mM H2O2 at 5% CO2 and 37° C. for 15 min. Then, ATP was added to the blood at final concentrations of 1-300 μM for the 30 min incubation step, and then incubated as in Experiment 2 with LPS/PHA for 24 hours.

[4] = tested on: IL-10; assay: LPS+PHA-induced IL-10 secretion in whole blood under oxidative stress (H2O2); type: cell-based, human
Method: FIG. 11 Effect of ATP on LPS+PHA-induced IL-10 secretion in whole blood from healthy subjects under conditions of oxidative stress. Two concentrations of H2O2 (1 and 10 mM) were added to whole blood, together with the indicated concentrations of ATP. Then, blood was exposed to 10 μg/ml LPS and 1 μg/ml PHA, and incubated for 24 h. The IL-10 released into the supernatants was analyzed using the ELISA method. […] Data are expressed as the mean values; error bars represent SEM.
as §3

[5] = tested on: TNF-α/IL-10 ratio; assay: TNF-α/IL-10 ratio in whole blood incubated with H2O2 without LPS+PHA; type: cell-based, human; conditions: 300 μM ATP, 5 mM H2O2, no LPS+PHA
Method: FIG. 14 Effect of ATP on cytokine secretion in whole blood under conditions of oxidative stress. Blood was pre-incubated with ATP or no ATP (control) for 30 min, followed by incubation with H2O2 (5 mM) or 24 h, without addition of LPS+PHA. The TNF-α and IL-10 released into the supernatant was analyzed using the ELISA method. Results are expressed in percentage, 100% being the TNF-α/IL-10 ratio when blood was incubated with H2O2 only, but no ATP (control). The TNF-alpha/IL-10 ratio was reduced by ATP in a concentration-dependent manner, with a 90% reduction at 300 μM ATP, indicating inhibition of inflammatory response.
This experiment was performed to test the effects of ATP under circumstances of oxidative stress in healthy subjects, but without LPS-PHA induced stimulation of cytokine production. Whole blood was collected as described for experiment 2, and was pre-incubated with ATP at final concentrations of 100-300 μM, or no ATP (control), for 30 min. Then, blood was incubated with H2O2 (5 mM) or 24 h, without addition of LPS+PHA. and incubated for 24 hours with 5 mM H2O2 at 5% CO2 and 37° C. Cytokine production was measured as in Experiment 2. Results were expressed as the TNF-α/IL-10 ratio relative to the control condition (H2O2 without ATP).

[6] = Randomized clinical trial of ATP in advanced non-small-cell lung cancer (prior art); type: in vivo, human; conditions: unpublished data 2005

Nc1ncnc2c1ncn2[C@@H]1O[C@H](COP(=O)(O)OP(=O)(O)OP(=O)(O)O)[C@@H](O)[C@H]1O [ATP, Adenosine 5′-triphosphate]
effect of purinergic compound on LPS+PHA-induced TNF-α release ([1]; 300 μM, 24 h): greatest inhibition | effect on inhibiting TNFα and stimulating IL-10 production ([1]; LPS-PHA stimulated whole blood, Experiment 4): more effective | effect on LPS+PHA-induced TNF-α release ([1]; indicated ATP concentrations, 24 h): significantly inhibited | effect on LPS+PHA-induced IL-10 release [2]: significantly increased | effect on LPS+PHA-induced TNF-α release ([3]; 1 or 10 mM H2O2): significantly inhibited | effect on TNF-α release ([3]; ATP below 100 μM, 1 or 10 mM H2O2): did not affect | inhibition at 300 µM ([3]; Homo sapiens, 300 μM ATP, 1 or 10 mM H2O2, LPS-PHA, read-out: inhibition of TNF-α release): ~50% | increase in IL-10 release ([4]; 300 μM ATP, 1 or 10 mM H2O2, LPS-PHA): 50-60% | effect on LPS+PHA-induced IL-10 release ([4]; 1 or 10 mM H2O2): significantly increased | reduction in the TNF-α/IL-10 ratio [5]: 90% | effect on blood sedimentation rate [6]: neither an effect

Source: patent US20090215713A1, “Use of atp for the manufacture of a medicament for the prevention and treatment of oxidative stress and related conditions” (priority 2004, published 2009)
